*1 amine or outer side, *2 acyl side, *3 side chain or, on linkers, in order; H or OH if unused. Where a SMILES comes first, the peptide text is derived from it. Bridges are numbered along the chain shown (N, C = ends). [ ]: non-standard residue; d: D form. The star is where a group is joined. hMet = CSCCC[C@H](N)C(=O)O; Orn = NCCC[C@H](N)C(=O)O; Dab = NCC[C@H](N)C(=O)O; X1 = O=C(C[*:2])[*:1]; For = O=C*
Legend:
proteinase K = proteinase K (Parengyodontium album, UniProt P06873); experiment: Protease resistance of peptides against proteinase K, analysed by MALDI-MS; format: in vitro ADME; settings: 5 μg/ml proteinase K, 37° C., 1 hour
Sequence of proteinase K (P06873 106-384, species assumed): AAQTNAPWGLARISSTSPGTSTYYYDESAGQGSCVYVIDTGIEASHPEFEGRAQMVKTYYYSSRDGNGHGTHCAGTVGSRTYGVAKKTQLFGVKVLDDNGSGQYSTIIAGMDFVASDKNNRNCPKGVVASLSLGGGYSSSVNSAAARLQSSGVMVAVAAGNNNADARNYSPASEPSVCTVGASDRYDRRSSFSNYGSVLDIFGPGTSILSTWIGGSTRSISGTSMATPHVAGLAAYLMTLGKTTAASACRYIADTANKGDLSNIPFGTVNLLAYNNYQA
Description: Translationally synthesized peptides and purchased Urotensin II peptides were reacted in 5 μg/ml of a proteinase K solution at 37° C. for 1 hour in the presence of, or in the absence of, 1 mM DTT.

Urotensin II receptor = target: T1, Urotensin II receptor (Homo sapiens, UniProt Q9UKP6); experiment: Calcium mobilization measurement in HEK-UTR cells (Fluo-4-AM fluorescence); format: cell-based; settings: HEK-UTR cells (HEK cells expressing an Urotensin II receptor)
T1 construct: expressed in transfected cells; host or cells: HEK cells (HEK-UTR)
T1 sequence (Q9UKP6 1-389): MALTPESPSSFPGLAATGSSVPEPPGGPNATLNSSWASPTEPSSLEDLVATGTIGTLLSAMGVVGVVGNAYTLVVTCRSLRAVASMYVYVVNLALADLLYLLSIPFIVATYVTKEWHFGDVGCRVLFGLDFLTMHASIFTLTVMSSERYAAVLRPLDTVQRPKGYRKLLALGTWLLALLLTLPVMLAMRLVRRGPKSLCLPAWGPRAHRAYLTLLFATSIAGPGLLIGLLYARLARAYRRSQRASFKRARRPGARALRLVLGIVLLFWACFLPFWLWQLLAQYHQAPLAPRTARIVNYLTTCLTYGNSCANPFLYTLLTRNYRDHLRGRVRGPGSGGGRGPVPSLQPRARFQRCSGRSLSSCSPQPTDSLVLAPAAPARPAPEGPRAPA
Description: FIG. 10 illustrates calcium mobilization in cells by addition of peptides using a fluorescent reagent. 2×10^5 HEK-UTR cells (HEK cells expressing an Urotensin II receptor) were seeded into a 96 well plate. After 12-16 hours, the cells were incubated in 1 μM Fluo-4-AM (Dojindo Laboratories) for 1 hour. After the incubation was completed, the fluorescent reagent was removed, and 90 μL of an assay buffer (Hanks Balanced Salts Solution (HBSS), 10 mM HEPES, 200 μM of CaCl2, 0.1% BSA, and 2.5 mM probenecid) was added. Then, 10 μL of peptides dissolved in an assay buffer was added, and changes in an intensity of fluorescent light were measured by a microplate reader. The peptides were prepared by purifying the translation product by Zip-tip (Millipore) and distilling off the elute under reduced pressure.

CSCC[C@H](NC=O)C(=O)N1CCC[C@H]1C(=O)N[C@@H](CC(=O)O)C(=O)N[C@@H](CC(C)C)C(=O)N[C@@H](Cc1ccccc1)C(=O)N[C@@H](Cc1c[nH]c2ccccc12)C(=O)N[C@@H](CCCCN)C(=O)N[C@@H](Cc1ccc(O)cc1)C(=O)N[C@@H](CS)C(=O)N[C@H](C(=O)O)C(C)C [YS10] (For-MPDLFWKYCV-OH; N-terminus and C-terminus assumed)
degradation by proteinase K (proteinase K): degraded

CSCCC[C@H](NC=O)C(=O)N1CCC[C@H]1C(=O)N[C@@H](CC(=O)O)C(=O)N[C@H]1CCNC(=O)CSC[C@@H](C(=O)N[C@H](C(=O)O)C(C)C)NC(=O)[C@H](Cc2ccc(O)cc2)NC(=O)[C@H](CCCN)NC(=O)[C@H](Cc2c[nH]c3ccccc23)NC(=O)[C@H](Cc2ccccc2)NC1=O [YS9] (For-[hMet]PD[Dab]FW[Orn]YCV-OH; linker 4-9 via X1)
calcium mobilization in cells (change in fluorescence intensity) (Urotensin II receptor): calcium mobilization in the cells was observed | degradation by proteinase K (proteinase K): not degraded

CC(C)[C@H](NC(=O)[C@@H]1CSSC[C@H](NC(=O)[C@H](CC(=O)O)NC(=O)[C@@H]2CCCN2C(=O)[C@@H](NC(=O)[C@@H](N)CCC(=O)O)[C@@H](C)O)C(=O)N[C@@H](Cc2ccccc2)C(=O)N[C@@H](Cc2c[nH]c3ccccc23)C(=O)N[C@@H](CCCCN)C(=O)N[C@@H](Cc2ccc(O)cc2)C(=O)N1)C(=O)O [Urotensin II]
degradation by proteinase K (proteinase K): not degraded | degradation by proteinase K after change into linear form by DTT (proteinase K; in the presence of 1 mM DTT): decomposed
